Target: human recombinant TRPV1 (Homo sapiens (Human), UniProt Q8NER1)
Experiment: TRPV1 pH-Based Assay (Protocol 2, Ca2+ response in TRPV1/CHO cells, Fura-2)
Format: cell-based
Conditions: not given
Description: For Protocol 2, a Chinese Hamster Ovary cell line (CHO) that has been engineered to constitutively express human recombinant TRPV1 was used (TRPV1/CHO cells). The TRPV1/CHO cell line was generated as described below.
TRPV1/CHO cells were seeded in the 96-well clear-bottom black-wall plate (Nunc) at densities of 1-2×10^4 cells/well and grown in 100 μL of culture medium (alpha-MEM supplemented with 10% FBS, 20 mM HEPES, 1 mg/mL geneticin and 1% antibiotic-antimycotic mixed stock solution) for 1-2 days before the experiment.
(2) The 96-well plate was incubated at 37° C. for 45 min.
(3) The loading buffer was removed from each well. […] The wells were then refilled with 80 μL of measuring buffer.
(4) After an incubation at 4° C. for 15 min, the 96-well plate was transferred to FDSS-3000 (Hamamatsu Photonics, Japan).
(5) The Fura-2 fluorescent intensity was monitored at a wavelength of 340 nm and at 380 nm, respectively, at a rate of 0.5 Hz for a total of 240 seconds. After 16 time points (32 sec) of baseline detection, 20 μL of agonist solution was added to each well. The final volume was 100 μL/well.
(6) Fluorescence intensity ratio refers to the fluorescence intensity at 340 nm over the fluorescence intensity at 380 nm at a particular time point. The baseline was set as the average of the fluorescent intensity ratios for the first 16 time points before the addition of agonist solution. The maximum response was the highest fluorescent intensity ratio during the 60 time points following addition of agonist solution.
(7) Maximal signal ratios from each well were calculated as output data using the FDSS-3000 analysis program. Data were analyzed using Excel (Microsoft) and XLfit (idbs) software.
Two different agonist solutions with different H2SO4 concentrations were used for the pH assay (FIG. 3A). For one half of a 96-well plate one agonist solution was used, for the other half the other agonist solution. The agonist solutions were obtained by diluting sulfuric acid (H2SO4, 1M) with measuring buffer. The concentrations for the two agonist solutions were determined as described above in Section 2 of Protocol 2.
The sulfuric acid concentrations between the two agonist solutions differed by 0.5 mM. […] After 1:4 dilution of the agonist solutions, the final sulfuric acid concentration was 3.2 mM and 3.3 mM, respectively. The resulting pH value for the pH assay was 5.0 to 5.1.
Test compounds were dissolved in DMSO to yield 1 mM stock solutions. […] The thereby-obtained solutions were further diluted in measuring buffer (1:100) as 10× stock serial dilutions with a DMSO concentration of 1%. 10 μL of a 10× stock was added into each well at step 3.3.(4) of Protocol 2.
Steps (1) and (2) of this Assay were the same as steps 2.2.(1) and 2.2.(2) of Protocol 2, respectively.
(3) The cells were washed twice with 150 μL of measuring buffer (mentioned in 2.2.(3) of Protocol 2, no probenecid). The wells were subsequently refilled with 70 μL of measuring buffer.
(4) Either 10 μl of measuring buffer or 10 μL of 10× stock serial dilution of test compound (described in 3.2. above) were applied to each well. Usually, only one test compound was tested per 96-well plate. The number of replicates per 96-well plate for a particular antagonist at a particular concentration was 7×2 since two different sulfuric acid concentrations were used per 96-well plate (N=7×2) (FIG. 3).
Step (5) was the same as 2.2.(4) above.
(6) Fura-2 fluorescent intensity was monitored as described in 2.2.(5) above. After 16 time points of baseline detection, 20 μL of agonist solution (measuring buffer titrated with H2SO4 to yield pH 5.0-5.1 when mixed 1:4 with the measuring buffer containing test compound) was added to each well (final volume 100 μL/well).
Steps (7) and (8) were as described in 2.2.(6) and 2.2.(7) above, respectively.
(1) The pH values of the buffer in the wells of A1→H1 and A7→H7 (longitudinally; FIG. 3) were measured one by one using a portable pH meter.

human recombinant TRPV1, sequence (Q8NER1 whole entry): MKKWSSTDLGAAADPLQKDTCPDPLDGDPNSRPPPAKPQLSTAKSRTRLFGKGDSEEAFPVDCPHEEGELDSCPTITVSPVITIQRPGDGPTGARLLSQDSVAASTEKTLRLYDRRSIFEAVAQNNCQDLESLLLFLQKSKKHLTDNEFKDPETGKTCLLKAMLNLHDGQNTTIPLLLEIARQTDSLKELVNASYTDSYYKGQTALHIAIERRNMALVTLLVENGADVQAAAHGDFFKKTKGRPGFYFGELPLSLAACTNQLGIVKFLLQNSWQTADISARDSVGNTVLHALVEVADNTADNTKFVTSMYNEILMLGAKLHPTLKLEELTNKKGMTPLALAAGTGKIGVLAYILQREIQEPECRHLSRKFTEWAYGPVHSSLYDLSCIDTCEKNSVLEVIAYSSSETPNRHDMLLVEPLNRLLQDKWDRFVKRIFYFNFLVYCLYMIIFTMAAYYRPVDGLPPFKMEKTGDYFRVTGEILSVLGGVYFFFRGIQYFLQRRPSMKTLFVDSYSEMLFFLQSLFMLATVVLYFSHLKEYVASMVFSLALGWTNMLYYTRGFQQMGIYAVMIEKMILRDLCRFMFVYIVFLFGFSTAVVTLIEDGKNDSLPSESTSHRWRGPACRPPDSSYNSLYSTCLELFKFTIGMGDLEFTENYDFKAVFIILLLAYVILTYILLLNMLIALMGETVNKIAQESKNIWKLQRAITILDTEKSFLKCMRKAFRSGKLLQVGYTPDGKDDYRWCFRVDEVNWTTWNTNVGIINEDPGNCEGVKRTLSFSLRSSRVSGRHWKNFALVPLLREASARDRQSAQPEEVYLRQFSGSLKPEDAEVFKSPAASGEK

Row | SMILES | IC50 [nM]
1 | O=C(Nc1nc2cc(F)c(F)cc2s1)N1CCN(c2ncc(C[C@@H](O)CO)cc2F)CC1 [AFA] | ≤ 50

Same assay, conditions: TRPV1/CHO cells, pH 5.0-5.1; comparative compounds without the substituted alkyl group; read-out: TRPV1 IC50 Potency (pH-Based Assay), Comparative compound IC50

Row | SMILES | IC50 [nM]
2 | O=C(Nc1ccc(C(F)(F)F)c(Cl)c1)N1CC=C(c2ncccc2Cl)CC1 [drawing 478, reference compound] | 139
3 | C[C@@H]1CN(c2ncccc2Cl)CCN1C(=O)Nc1nc2ccc(F)cc2s1 [reference compound] | 24

Second part, the molecule after the results:

Row | IC50 [nM] | SMILES
4 | 77 | O=C(Nc1ccc(C(F)(F)F)c(Cl)c1)N1CC=C(c2ncccc2Cl)CC1 [drawing 493, reference compound]
5 | 943 | O=C(Nc1nc2ccc(F)cc2s1)N1CC=C(c2ncccc2Cl)CC1 [reference compound]

Same assay, conditions: TRPV1/CHO cells, pH 5.0-5.1; compounds of the invention; read-out: TRPV1 IC50 Potency (pH-Based Assay), Compound IC50

Row | SMILES | IC50 [nM]
6 | O=C(Nc1nc2ccc(C(F)(F)F)cc2s1)N1CCC(F)(c2ncc([C@H](O)[C@H](O)CO)cc2Cl)CC1 | 171
7 | O=C(Nc1ccc(OC(F)(F)F)cn1)N1CC=C(c2ncc(C(F)(F)[C@@H](O)CO)cc2Cl)CC1 | 46
8 | O=C(Nc1ccc(C(F)(F)F)c(Cl)c1)N1CC=C(c2ncc(CC(O)CO)cc2Cl)CC1 (stereo not shown) | 10
9 | O=C(Nc1ccc(OC(F)(F)F)c(Cl)c1)N1CC=C(c2ncc(C[C@@H](O)CO)cc2Cl)CC1 | 17
10 | O=C(Nc1nc2ccc(F)cc2s1)N1CC=C(c2ncc(CC(O)CO)cc2Cl)CC1 (stereo not shown) | 5
11 | O=C(Nc1ccc(C(F)(F)F)cc1)N1CC=C(c2ncc(CC(O)CO)cc2Cl)CC1 (stereo not shown) | 12

Now from value to molecule:

Row | IC50 [nM] | SMILES
12 | 143 | O=C(Nc1ccc(C(F)(F)F)cn1)N1CCC(F)(c2ncc([C@H](O)[C@H](O)CO)cc2Cl)CC1
13 | 614 | O=C(Nc1nc2ccc(C(F)(F)F)cc2s1)N1CCC(F)(c2ncc(C[C@H](O)CO)cc2Cl)CC1
14 | 38 | O=C(Nc1ccc(C(F)(F)F)cn1)N1CC=C(c2ncc(CC(O)CO)cc2Cl)CC1 (stereo not shown)
15 | 1 | CO[C@@H]1CN(c2ncc(C[C@@H](O)CO)cc2Cl)CCN1C(=O)Nc1nc2ccc(F)cc2s1

Same assay, conditions: TRPV1/CHO cells, pH 5.0-5.1; read-out: IC50 value by the pH-Based Assay

Row | SMILES | IC50 [nM]
16 | O=C(Nc1ccc(C(F)(F)F)c(Cl)c1)N1CC=C(c2ncc(C[C@H](O)CO)cc2F)CC1 [AAZ, (S)-N-(3-chloro-4-(trifluoromethyl)phenyl)-5-(2,3-dihydroxy-propyl)-3-fluoro-5′,6′-dihydro-[2,4′-bipyridine]-1′(2′H)-carboxamide] | ≤ 50
17 | O=C(Nc1nc2ccc(F)cc2s1)N1C2CCC1CN(c1ncc(C[C@H](O)CO)cc1F)C2 [AHB] | ≤ 50
18 | C[C@@H]1CN(c2ncc(C[C@H](O)CO)cc2F)C[C@H](C)N1C(=O)Nc1nc2ccc(F)cc2s1 [AFU] | ≤ 50
19 | Cc1cc(NC(=O)N2CC=C(c3ncc(C[C@H](O)CO)cc3Cl)CC2)ccc1C(F)(F)F [ACG, (S)-4-(3-Chloro-5-(2,3-dihydroxypropyl)pyridin-2-yl)-N-(3-methyl-4-(trifluoromethyl)phenyl)-5,6-dihydropyridine-1(2H)-carboxamide] | ≤ 50
20 | O=C(Nc1nc2ccccc2s1)N1CCN(c2ncc(C[C@H](O)CO)cc2Cl)CC1 [ADS] | ≤ 50
21 | C[C@H]1CN(c2ncc(C[C@@H](O)CO)cc2F)CCN1C(=O)Nc1nc2ccc(F)cc2s1 [AEJ] | ≤ 50
22 | Cc1cc(NC(=O)N2CC=C(c3ncc(C(F)(F)[C@@H](O)CO)cc3Cl)CC2)ccc1C(F)(F)F [ADC, (S)-4-(3-chloro-5-(1,1-difluoro-2,3-dihydroxypropyl)pyridin-2-yl)-N-(3-methyl-4-(trifluoromethyl)phenyl)-5,6-dihydropyridine-1(2H)-carboxamide] | ≤ 50
23 | C[C@H]1CN(c2ncc(C[C@H](O)CO)cc2F)CCN1C(=O)Nc1nc2ccc(F)cc2s1 [AEL] | ≤ 50
24 | O=C(Nc1ccc(C(F)(F)F)c(Cl)c1)N1CC=C(c2ncc(C[C@@H](O)CO)cc2F)CC1 [AAY, (R)-N-(3-chloro-4-(trifluoromethyl)phenyl)-5-(2,3-dihydroxypropyl)-3-fluoro-5′,6′-dihydro-[2,4′-bipyridine]-1′(2′H)-carboxamide] | ≤ 50
25 | Cc1ccc2nc(NC(=O)N3CCN(c4ncc(C[C@@H](O)CO)cc4F)[C@@H](C)C3)sc2c1 [AFO, (S)-4-(5-((R)-2,3-dihydroxypropyl)-3-fluoropyridin-2-yl)-3-methyl-N-(6-methylbenzo[d]thiazol-2-yl)piperazine-1-carboxamide] | ≤ 50
26 | Cc1cc([C@H](O)[C@@H](O)CO)cnc1C1(F)CCN(C(=O)Nc2ccc(C(F)(F)F)c(Cl)c2)CC1 [ABH, N-(3-Chloro-4-(trifluoromethyl)phenyl)-4-fluoro-4-(3-methyl-5-((1S,2S)-1,2,3-trihydroxypropyl)pyridin-2-yl)piperidine-1-carboxamide] | ≤ 50
27 | O=C(Nc1ccc(C(F)(F)F)cn1)N1CC=C(c2ncc(C[C@@H](O)CO)cc2Cl)CC1 [AAJ, (R)-4-(3-Chloro-5-(2,3-dihydroxypropyl)pyridin-2-yl)-N-(5-(trifluoromethyl)pyridin-2-yl)-5,6-dihydropyridine-1(2H)-carboxamide] | ≤ 50
28 | O=C(Nc1nc2ccc(F)cc2s1)N1CC=C(c2ncc(C[C@H](O)CO)cc2Cl)CC1 [AAH] | ≤ 50
29 | Cc1cc2nc(NC(=O)N3CCN(c4ncc(C[C@H](O)CO)cc4F)C[C@@H]3C)sc2cc1C [AEU] | ≤ 50

Next, values leading:

Row | IC50 [nM] | SMILES
30 | ≤ 50 | Cc1cc(NC(=O)N2CCC(F)(c3ncc(C[C@H](O)CO)cc3F)CC2)ccc1OC(F)(F)F [ACR, (S)-4-(5-(2,3-dihydroxypropyl)-3-fluoropyridin-2-yl)-4-fluoro-N-(3-methyl-4-(trifluoromethoxy)phenyl)piperidine-1-carboxamide]
31 | ≤ 50 | C[C@H]1CN(C(=O)Nc2nc3ccc(F)cc3s2)CCN1c1ncc(C[C@H](O)CO)cc1F [AFM, (S)-4-(5-((S)-2,3-dihydroxypropyl)-3-fluoropyridin-2-yl)-N-(6-fluorobenzo[d]thiazol-2-yl)-3-methylpiperazine-1-carboxamide]
32 | ≤ 50 | Cc1cc2nc(NC(=O)N3CCN(c4ncc(C[C@@H](O)CO)cc4F)C[C@@H]3C)sc2cc1C [AET]
33 | ≤ 50 | C[C@H]1CN(C(=O)Nc2nc3cc(F)c(F)cc3s2)CCN1c1ncc(C[C@H](O)CO)cc1F [AGL]
34 | ≤ 50 | C[C@H]1CN(c2ncc(C[C@@H](O)CO)cc2C(F)(F)F)CCN1C(=O)Nc1nc2ccccc2s1 [AGV]
35 | ≤ 50 | O=C(Nc1nc2ccc(F)cc2s1)N1CC=C(c2ncc(C[C@@H](O)CO)cc2Cl)CC1 [AAL, (R)-4-(3-Chloro-5-(2,3-dihydroxypropyl)pyridin-2-yl)-N-(6-fluorobenzo[d]thiazol-2-yl)-5,6-dihydropyridine-1(2H)-carboxamide]
36 | ≤ 50 | C[C@@H]1CN(c2ncc(C[C@H](O)CO)cc2F)CCN1C(=O)Nc1nc2ccccc2s1 [AGX]
37 | ≤ 50 | C[C@H]1CN(c2ncc(C[C@H](O)CO)cc2F)CCN1C(=O)Nc1nc2cc(F)c(F)cc2s1 [AEZ]
38 | ≤ 50 | C[C@H]1CN(c2ncc(C[C@H](O)CO)cc2F)CCN1C(=O)Nc1nc2ccc(SC(F)(F)F)cc2s1 [AGR]
39 | ≤ 50 | Cc1ccc2nc(NC(=O)N3CCN(c4ncc(C[C@H](O)CO)cc4F)[C@@H](C)C3)sc2c1 [AFP, (S)-4-(5-((S)-2,3-dihydroxypropyl)-3-fluoropyridin-2-yl)-3-methyl-N-(6-methylbenzo[d]thiazol-2-yl)piperazine-1-carboxamide]
40 | ≤ 50 | O=C(Nc1ccc(C(F)(F)F)c(Cl)c1)N1CCC(F)(c2ncc([C@H](O)[C@@H](O)CO)cc2Cl)CC1 [ABG, N-(3-Chloro-4-(trifluoromethyl)phenyl)-4-(3-chloro-5-((1S,2S)-1,2,3-trihydroxypropyl)pyridin-2-yl)-4-fluoropiperidine-1-carboxamide]
